Assay results: patent US12599136B2, “Substituted isophthalic acid diamides and their use as herbicides” (Bayer Aktiengesellschaft, priority 2020, dated 2026)

What was measured:
Type in all cases: in vivo
Abutilon theophrasti [1] = experiment: Pre-emergence herbicidal action against ABUTH; conditions: visual score after 3 weeks vs untreated controls
Procedure, shortened: (§1)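 Herbicidal effect was assessed 3 weeks after treatment by visual comparison with untreated controls, 100% denoting dead plants. Aqueous WP or EC preparations had been applied at 600 to 800 l/ha with 0.2% wetting agent to the soil covering freshly sown seeds.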

Alopecurus myosuroides [2] = experiment: Pre-emergence herbicidal action against ALOMY; conditions: 80 g/ha; visual score after 3 weeks vs untreated controls
Procedure, shortened: as §1

Amaranthus retroflexus [3] = experiment: Pre-emergence herbicidal action against AMARE; conditions: visual score after 3 weeks vs untreated controls
Procedure, shortened: as §1

Avena fatua [4] = experiment: Pre-emergence herbicidal action against AVEFA; conditions: 80 g/ha; visual score after 3 weeks vs untreated controls
Procedure, shortened: as §1

Echinochloa crus-galli [5] = experiment: Pre-emergence herbicidal action against ECHCG; conditions: 80 g/ha; visual score after 3 weeks vs untreated controls
Procedure, shortened: as §1

Matricaria inodora [6] = experiment: Pre-emergence herbicidal action against MATIN; conditions: visual score after 3 weeks vs untreated controls
Procedure, shortened: as §1

Polygonum convolvulus = experiment: Pre-emergence herbicidal action against POLCO; conditions: 80 g/ha
Procedure, shortened: as §1

Setaria viridis [7] = experiment: Pre-emergence herbicidal action against SETVI; conditions: 80 g/ha
Procedure, shortened: as §1

Veronica persica [8] = experiment: Pre-emergence herbicidal action against VERPE; conditions: 80 g/ha
Procedure, shortened: as §1

Viola tricolor [9] = experiment: Pre-emergence herbicidal action against VIOTR; conditions: 80 g/ha
Procedure, shortened: as §1

Abutilon theophrasti [10] = experiment: Post-emergence herbicidal action against ABUTH
Procedure, shortened: (§2)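 Herbicidal effect was scored visually in percent after about 3 weeks in the greenhouse. Plants had been raised in sandy loam and treated post-emergence at the one-leaf stage with formulated compound at 600 to 800 l/ha water plus 0.2% wetting agent.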

Alopecurus myosuroides [11] = experiment: Post-emergence herbicidal action against ALOMY
Procedure, shortened: as §2

Amaranthus retroflexus [12] = experiment: Post-emergence herbicidal action against AMARE; conditions: visual assessment about 3 weeks after treatment
Procedure, shortened: as §2

Avena fatua [13] = experiment: Post-emergence herbicidal action against AVEFA; conditions: 20 g/ha, visual assessment about 3 weeks after treatment
Procedure, shortened: as §2

Echinochloa crus-galli [14] = experiment: Post-emergence herbicidal action against ECHCG; conditions: 20 g/ha, visual assessment about 3 weeks after treatment
Procedure, shortened: as §2

Matricaria inodora [15] = experiment: Post-emergence herbicidal action against MATIN; conditions: visual assessment about 3 weeks after treatment
Procedure, shortened: as §2

Pharbitis purpurea = experiment: Post-emergence herbicidal action against PHBPU; conditions: visual assessment about 3 weeks after treatment
Procedure, shortened: as §2

Digitaria sanguinalis = experiment: Post-emergence herbicidal action against DIGSA
Procedure: Seeds of monocotyledonous and dicotyledonous weed and crop plants are laid out in sandy loam soil in wood-fiber pots, covered with soil and cultivated in a greenhouse under good growth conditions. 2 to 3 weeks after sowing, the test plants are treated at the one-leaf stage. The compounds of the invention, formulated in the form of wettable powders (WP) or as emulsion concentrates (EC), are then sprayed onto the green parts of the plants in the form of an aqueous suspension or emulsion at a water application rate equivalent to 600 to 800 l/ha, with addition of 0.2% wetting agent. After the test plants have been left to stand in the greenhouse under optimal growth conditions for about 3 weeks, the action of the preparations is assessed visually in comparison to untreated controls (herbicidal action in percent (%): 100% activity=the plants have died, 0% activity=like control plants). […] The tables below illustrate, in an illustrative manner, the post-emergence herbicidal action of the compounds of the invention, the herbicidal activity being stated in percent.

Setaria viridis [16] = experiment: Post-emergence herbicidal action against SETVI; conditions: visual assessment about 3 weeks after treatment
Procedure, shortened: as §2

Viola tricolor [17] = experiment: Post-emergence herbicidal action against VIOTR; conditions: 20 g/ha
Procedure, shortened: as §2

Lolium rigidum = experiment: Pre-emergence herbicidal action against LOLRI; conditions: 80 g/ha
Excerpt: Seeds of monocotyledonous and dicotyledonous weed plants and crop plants are laid out in sandy loam soil in wood-fiber pots and covered with soil. The compounds of the invention, formulated in the form of wettable powders (WP) or as emulsion concentrates (EC), are then applied to the surface of the covering soil in the form of an aqueous suspension or emulsion at a water application rate equivalent to 600 to 800 l/ha, with addition of 0.2% wetting agent. After the treatment, the pots are placed in a greenhouse and kept under good growth conditions for the trial plants. The damage to the test plants is scored visually after a test period of 3 weeks by comparison with untreated controls (herbicidal activity in percent (%): 100% activity=the plants have died, 0% activity=like control plants). […] The tables below illustrate, in an illustrative manner, the post-emergence herbicidal action of the compounds of the invention, the herbicidal activity being stated in percent.

Veronica persica [18] = experiment: Post-emergence herbicidal action against VERPE; conditions: 20 g/ha, visual assessment about 3 weeks after treatment
Procedure, shortened: as §2

| SMILES | Pre-emergence action against ABUTH (Abutilon theophrasti [1]; 20 g/ha) [%] | Pre-emergence action against ABUTH (Abutilon theophrasti [1]; 80 g/ha) [%] | Pre-emergence action against ALOMY (Alopecurus myosuroides [2]) [%] | Pre-emergence action against AMARE (Amaranthus retroflexus [3]; 20 g/ha) [%] | Pre-emergence action against AMARE (Amaranthus retroflexus [3]; 80 g/ha) [%] | Pre-emergence action against AVEFA (Avena fatua [4]) [%] | Pre-emergence action against ECHCG (Echinochloa crus-galli [5]) [%] | Pre-emergence action against MATIN (Matricaria inodora [6]; 20 g/ha) [%] | Pre-emergence action against MATIN (Matricaria inodora [6]; 80 g/ha) [%] | Pre-emergence action against SETVI (Setaria viridis [7]) [%] | Pre-emergence action against VERPE (Veronica persica [8]) [%] | Pre-emergence action against VIOTR (Viola tricolor [9]) [%] | Post-emergence action against ABUTH (Abutilon theophrasti [10]; 5 g/ha) [%] | Post-emergence action against ABUTH (Abutilon theophrasti [10]; 20 g/ha) [%] | Post-emergence action against ALOMY (Alopecurus myosuroides [11]; 20 g/ha) [%] | Post-emergence action against AMARE in % (Amaranthus retroflexus [12]; 5 g/ha) [%] | Post-emergence action against AMARE in % (Amaranthus retroflexus [12]; 20 g/ha) [%] | Post-emergence action against AVEFA in % (Avena fatua [13]) [%] | Post-emergence action against ECHCG in % (Echinochloa crus-galli [14]) [%] | Post-emergence action against MATIN in % (Matricaria inodora [15]; 20 g/ha) [%] | also measured |
| --- | --- | --- | --- | --- | --- | --- | --- | --- | --- | --- | --- | --- | --- | --- | --- | --- | --- | --- | --- | --- | --- |
| CCN(CC)C(=O)c1c(C(F)F)ccc(C(=O)Nc2nnnn2CC)c1Cl [Example 2-166] | 100 | 100 | 90 | 100 | 100 | 80 | 90 | 80 | 100 | 100 | 100 | 100 | 80 | 90 | 90 | 100 | 100 | 80 | 80 | 80 | Pre-emergence action against POLCO (Polygonum convolvulus): 80%; Post-emergence action against MATIN in % (Matricaria inodora [15]; 5 g/ha): 80%; Post-emergence action against PHBPU in % (Pharbitis purpurea; 5 g/ha): 80%; Post-emergence action against PHBPU in % (Pharbitis purpurea; 20 g/ha): 90%; Post-emergence action against DIGSA in % (Digitaria sanguinalis; 5 g/ha): 80%; Post-emergence action against DIGSA in % (Digitaria sanguinalis; 20 g/ha): 90%; Post-emergence action against SETVI in % (Setaria viridis [16]; 5 g/ha): 90%; Post-emergence action against SETVI in % (Setaria viridis [16]; 20 g/ha): 90%; Post-emergence action against VIOTR in % (Viola tricolor [17]): 80% |
| CCN(C)C(=O)c1c(C(F)F)ccc(C(=O)Nc2nnnn2C)c1Cl [Example 1-155] | 100 | 100 | 90 | 100 | 100 | 90 | 100 | 90 | 100 | 100 | 90 | 100 | 90 | 90 | 90 | 100 | 100 | 80 | 90 | 90 | Pre-emergence action against LOLRI (Lolium rigidum): 80%; Post-emergence action against ALOMY (Alopecurus myosuroides [11]; 5 g/ha): 80%; Post-emergence action against PHBPU in % (Pharbitis purpurea; 5 g/ha): 80%; Post-emergence action against PHBPU in % (Pharbitis purpurea; 20 g/ha): 80%; Post-emergence action against DIGSA in % (Digitaria sanguinalis; 5 g/ha): 80%; Post-emergence action against DIGSA in % (Digitaria sanguinalis; 20 g/ha): 80%; Post-emergence action against SETVI in % (Setaria viridis [16]; 5 g/ha): 80%; Post-emergence action against SETVI in % (Setaria viridis [16]; 20 g/ha): 90%; Post-emergence action against VERPE in % (Veronica persica [18]): 80%; Post-emergence action against VIOTR in % (Viola tricolor [17]): 80% |
